Test results as given in the supplement of paper PMC11208160.

Assay: recombinant barcode read abundance after kanamycin selection (control-corrected) (log10(CPM+1)); higher = more efficient recombination; sequences stand for … in AGTGCAGAGAAAATCGGCCAGTTTTCTCTGCCTGCAGTCCGCATGCCGT…AGATTTATGCAGCGGACTGCCTTTCTCCCAAAGTGATAAACCGGACAGTATCATGGACCGGTTTTCCCGGTAATCCGTATTTGCAAGGTTGGTTTCACT; site = the 11-nt target
Outline: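 Targets and IS621 bridge RNA target-binding loops were paired in oligos, each with a promoter, a barcode and the J23119-driven first 104 bridge RNA bases. A vector carrying the remaining 73 bp and a T7-inducible recombinase received these by Gibson cloning, and the pool was co-electroporated into E. coli with a donor plasmid. Duplicate plates contained chloramphenicol/ampicillin LB agar (control) or chloramphenicol/ampicillin/kanamycin with 0.1 mM IPTG. Recombination efficiency comes from averaged, control-corrected counts per million of recombinant-junction barcodes, reported as log10(CPM+1).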
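Also: IS621 recombinase and bridge RNA in Escherichia coli cells.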

| Sequence | recombinant barcode read abundance (log10) |
| --- | --- |
| CACTTGGCTTGGGTTCTAACCTGTTGCCT (site CACTTGACTAG) | 0.0371 |
| CACTTGGCTTGGGTTCTAACCTGTTGCCT (site CACTTGCCTAG) | 0.366 |
| CACTTGGCTTGGGTTCTAACCTGTTGCCT (site CACTTGGCTAG) | 0.134 |
| CACTTGGCTTGGGTTCTAACCTGTTGCCT (site CACTTGTCTAG) | 0.0944 |
| CAGAACACTTGGGTTCTAACCTGTTGCCT (site AAGAACACTAG) | 0.0991 |
| CAGAACACTTGGGTTCTAACCTGTTGCCT (site CAGAACACTAG) | 1.94 |
| CAGAACACTTGGGTTCTAACCTGTTGCCT (site GAGAACACTAG) | 0.198 |
| CAGAACACTTGGGTTCTAACCTGTTGCCT (site TAGAACACTAG) | 0.171 |
| CAGCCCTCTTGGGTTCTAACCTGTTGCCT (site CAGCCCTCTAG) | 2.59 |
| CAGCCCTCTTGGGTTCTAACCTGTTGCCT (site CCGCCCTCTAG) | 0.883 |
| CAGCCCTCTTGGGTTCTAACCTGTTGCCT (site CGGCCCTCTAG) | 0.0354 |
| CAGCCCTCTTGGGTTCTAACCTGTTGCCT (site CTGCCCTCTAG) | 0.315 |
| CAGCTACCTTGGGTTCTAACCTGTTGCCT (site CAGCTACCTAG) | 1.73 |
| CAGCTACCTTGGGTTCTAACCTGTTGCCT (site CCGCTACCTAG) | 0.334 |
| CAGCTACCTTGGGTTCTAACCTGTTGCCT (site CGGCTACCTAG) | 0.226 |
| CAGCTACCTTGGGTTCTAACCTGTTGCCT (site CTGCTACCTAG) | 0.585 |
| CAGGACTCTTGGGTTCTAACCTGTTGCTT (site CAGCACTCTTA) | 0.0832 |
| CAGGACTCTTGGGTTCTAACCTGTTGCTT (site CAGGACTCTAA) | 2.85 |
| CAGGCGGCTTGGGTTCTAACCTGTTGCCT (site CAGGCGACTAG) | 0.117 |
| CAGGCGGCTTGGGTTCTAACCTGTTGCCT (site CAGGCGCCTAG) | 0.254 |
| CAGGCGGCTTGGGTTCTAACCTGTTGCCT (site CAGGCGGCTAG) | 0.829 |
| CAGGCGGCTTGGGTTCTAACCTGTTGCCT (site CAGGCGTCTAG) | 0.0685 |

| Sequence | recombinant barcode read abundance (log10) |
| --- | --- |
| CAGGGTCCTTGGGTTCTAACCTGTTGCGG (site CAGGGTCCTCC) | 3.55 |
| CAGGGTCCTTGGGTTCTAACCTGTTGCGG (site TAGGGTTCTCC) | 0.0367 |
| CAGTCAGCTTGGGTTCTAACCTGTTGCCT (site CAGTCAGCTAG) | 1.16 |
| CAGTCAGCTTGGGTTCTAACCTGTTGCCT (site GTAAGGACTCC) | 0.0866 |
| CAGTCCTCTTGGGTTCTAACCTGTTGCTG (site CAGTCCTCTCA) | 2.23 |
| CAGTCCTCTTGGGTTCTAACCTGTTGCTG (site CCGTCCTCTCA) | 0.0321 |
| CAGTGAACTTGGGTTCTAACCTGTTGCCT (site CAGTGAACTAG) | 1.55 |
| CAGTGAACTTGGGTTCTAACCTGTTGCCT (site CCGTGAACTAG) | 0.181 |
| CAGTGAACTTGGGTTCTAACCTGTTGCCT (site CGGTGAACTAG) | 0.0595 |
| CAGTGAACTTGGGTTCTAACCTGTTGCCT (site CTGTGAACTAG) | 0.0273 |
| CAGTGGACTTGGGTTCTAACCTGTTGCCT (site CAATGGACTAG) | 0.961 |
| CAGTGGACTTGGGTTCTAACCTGTTGCCT (site CACTGGACTAG) | 0.101 |
| CAGTGGACTTGGGTTCTAACCTGTTGCCT (site CAGTGGACTAG) | 2.04 |
| CAGTGGACTTGGGTTCTAACCTGTTGCCT (site CATTGGACTAG) | 0.0477 |
| CAGTTGTCTTGGGTTCTAACCTGTTGCCT (site AAGTTGTCTAC) | 0.0187 |
| CAGTTGTCTTGGGTTCTAACCTGTTGCCT (site CAGTTGTCTAG) | 1.75 |
| CATAATTCTTGGGTTCTAACCTGTTGCCT (site CATAATTCTAG) | 0.445 |
| CATAATTCTTGGGTTCTAACCTGTTGCCT (site CATCATTCTAG) | 0 |
| CATAATTCTTGGGTTCTAACCTGTTGCCT (site CATGATTCTAG) | 0.0188 |
| CATAATTCTTGGGTTCTAACCTGTTGCCT (site CATTATTCTAG) | 0.0376 |
| CATAGCGCTTGGGTTCTAACCTGTTGCCT (site AGCTTGCCTCT) | 0.0679 |
| CATAGCGCTTGGGTTCTAACCTGTTGCCT (site CATAGCGCTAG) | 0.605 |

| Sequence | recombinant barcode read abundance (log10) |
| --- | --- |
| CATAGCTCTTGGGTTCTAACCTGTTGCCT (site AATAGCTCTAG) | 0.527 |
| CATAGCTCTTGGGTTCTAACCTGTTGCCT (site CATAGCTCTAG) | 1.24 |
| CATAGCTCTTGGGTTCTAACCTGTTGCCT (site GATAGCTCTAG) | 0.176 |
| CATAGCTCTTGGGTTCTAACCTGTTGCCT (site TATAGCTCTAG) | 0.337 |
| CATAGGCCTTGGGTTCTAACCTGTTGCAT (site CATAGACCTAT) | 0.23 |
| CATAGGCCTTGGGTTCTAACCTGTTGCAT (site CATAGCCCTAT) | 0.371 |
| CATAGGCCTTGGGTTCTAACCTGTTGCAT (site CATAGGCCTAT) | 0.811 |
| CATAGGCCTTGGGTTCTAACCTGTTGCAT (site CATAGTCCTAT) | 0.105 |
| CATAGTCCTTGGGTTCTAACCTGTTGCAT (site CATAGACCTAT) | 0.213 |
| CATAGTCCTTGGGTTCTAACCTGTTGCAT (site CATAGCCCTAT) | 0.884 |
| CATAGTCCTTGGGTTCTAACCTGTTGCAT (site CATAGGCCTAT) | 0.0509 |
| CATAGTCCTTGGGTTCTAACCTGTTGCAT (site CATAGTCCTAT) | 0.923 |
| CATCCCTCTTGGGTTCTAACCTGTTGCTT (site CATCCCTCTAA) | 1.51 |
| CATCCCTCTTGGGTTCTAACCTGTTGCTT (site CATCCGTCTAA) | 0.0576 |
| CATCCGTCTTGGGTTCTAACCTGTTGCCT (site CATCCGACTAG) | 0.105 |
| CATCCGTCTTGGGTTCTAACCTGTTGCCT (site CATCCGCCTAG) | 0.0457 |
| CATCCGTCTTGGGTTCTAACCTGTTGCCT (site CATCCGGCTAG) | 0.131 |
| CATCCGTCTTGGGTTCTAACCTGTTGCCT (site CATCCGTCTAG) | 1.21 |
| CATCCTACTTGGGTTCTAACCTGTTGCCG (site CATCCTACTAT) | 0.0476 |
| CATCCTACTTGGGTTCTAACCTGTTGCCG (site CATCCTACTCG) | 0.156 |
| CATCCTACTTGGGTTCTAACCTGTTGCCT (site CATCCTACTAG) | 0.259 |
| CATCCTACTTGGGTTCTAACCTGTTGCCT (site TCCAACTCTGT) | 0.153 |

| Sequence | recombinant barcode read abundance (log10) |
| --- | --- |
| CATCGGACTTGGGTTCTAACCTGTTGCTA (site CATCGGACTTA) | 0.834 |
| CATCGGACTTGGGTTCTAACCTGTTGCTA (site CATTGTACTTA) | 0.347 |
| CATCGGGCTTGGGTTCTAACCTGTTGCAG (site CATCGGGCTCT) | 1.43 |
| CATCGGGCTTGGGTTCTAACCTGTTGCAG (site CCTCGGGCTCT) | 0.0832 |
| CATCGGGCTTGGGTTCTAACCTGTTGCAG (site CGTCGGGCTCT) | 0.00527 |
| CATCGGGCTTGGGTTCTAACCTGTTGCAG (site CTTCGGGCTCT) | 0.292 |
| CATGATGCTTGGGTTCTAACCTGTTGCCT (site CAAGATGCTAG) | 0.256 |
| CATGATGCTTGGGTTCTAACCTGTTGCCT (site CACGATGCTAG) | 0.487 |
| CATGATGCTTGGGTTCTAACCTGTTGCCT (site CAGGATGCTAG) | 0.00956 |
| CATGATGCTTGGGTTCTAACCTGTTGCCT (site CATGATGCTAG) | 1.86 |
| CATGCCGCTTGGGTTCTAACCTGTTGCCT (site CATGACACTAG) | 0.226 |
| CATGCCGCTTGGGTTCTAACCTGTTGCCT (site CATGCCGCTAG) | 1.73 |
| CATGGGCCTTGGGTTCTAACCTGTTGCCT (site CATGGGCCTAG) | 0.0279 |
| CATGGGCCTTGGGTTCTAACCTGTTGCCT (site CCTGGGCCTAG) | 0.0246 |
| CATGGGCCTTGGGTTCTAACCTGTTGCCT (site CGTGGGCCTAG) | 0.151 |
| CATGGGCCTTGGGTTCTAACCTGTTGCCT (site CTTGGGCCTAG) | 0.174 |
| CATGGGTCTTGGGTTCTAACCTGTTGCCT (site CATGGGTCTAG) | 1.45 |
| CATGGGTCTTGGGTTCTAACCTGTTGCCT (site CCTGGGTCTAA) | 0.0946 |
| CATTAACCTTGGGTTCTAACCTGTTGCCT (site CATTAACCTAG) | 1.15 |
| CATTAACCTTGGGTTCTAACCTGTTGCCT (site TACTAACCTAG) | 0.208 |
